Experimental data as given in patent US12662465B2, “EGFR inhibitors” (Blueprint Medicines Corporation, priority 2021, dated 2026).
Read-outs that look alike come from different tables or passages of the source.

Assays:
EGFR (d746-750) = target: T1, EGFR (d746-750) (Homo sapiens, UniProt P00533, DEL746-750); assay: Biochemical EGFR inhibition assay (Caliper mobility shift), EGFR (d746-750); settings: read-out: Enz EGFR_Exon19-del746-750 IC50
T1 construct: purchased SignalChem E10-122JG

[1] = target: intracellular phosphorylation of EGFR (Tyr1068) in PC-9 cells (Ex19Del) (Homo sapiens, UniProt P00533, DEL746-750); assay: PC-9 pEGFR AlphaLISA assay; type: cell-based; settings: 4 hours compound incubation, read-out: Ext pEGFR_PC-9 Ex19Del IC50
Chain of intracellular phosphorylation of EGFR (Tyr1068) in PC-9 cells (Ex19Del) (P00533 with tags, fused parts or gaps DEL746-750): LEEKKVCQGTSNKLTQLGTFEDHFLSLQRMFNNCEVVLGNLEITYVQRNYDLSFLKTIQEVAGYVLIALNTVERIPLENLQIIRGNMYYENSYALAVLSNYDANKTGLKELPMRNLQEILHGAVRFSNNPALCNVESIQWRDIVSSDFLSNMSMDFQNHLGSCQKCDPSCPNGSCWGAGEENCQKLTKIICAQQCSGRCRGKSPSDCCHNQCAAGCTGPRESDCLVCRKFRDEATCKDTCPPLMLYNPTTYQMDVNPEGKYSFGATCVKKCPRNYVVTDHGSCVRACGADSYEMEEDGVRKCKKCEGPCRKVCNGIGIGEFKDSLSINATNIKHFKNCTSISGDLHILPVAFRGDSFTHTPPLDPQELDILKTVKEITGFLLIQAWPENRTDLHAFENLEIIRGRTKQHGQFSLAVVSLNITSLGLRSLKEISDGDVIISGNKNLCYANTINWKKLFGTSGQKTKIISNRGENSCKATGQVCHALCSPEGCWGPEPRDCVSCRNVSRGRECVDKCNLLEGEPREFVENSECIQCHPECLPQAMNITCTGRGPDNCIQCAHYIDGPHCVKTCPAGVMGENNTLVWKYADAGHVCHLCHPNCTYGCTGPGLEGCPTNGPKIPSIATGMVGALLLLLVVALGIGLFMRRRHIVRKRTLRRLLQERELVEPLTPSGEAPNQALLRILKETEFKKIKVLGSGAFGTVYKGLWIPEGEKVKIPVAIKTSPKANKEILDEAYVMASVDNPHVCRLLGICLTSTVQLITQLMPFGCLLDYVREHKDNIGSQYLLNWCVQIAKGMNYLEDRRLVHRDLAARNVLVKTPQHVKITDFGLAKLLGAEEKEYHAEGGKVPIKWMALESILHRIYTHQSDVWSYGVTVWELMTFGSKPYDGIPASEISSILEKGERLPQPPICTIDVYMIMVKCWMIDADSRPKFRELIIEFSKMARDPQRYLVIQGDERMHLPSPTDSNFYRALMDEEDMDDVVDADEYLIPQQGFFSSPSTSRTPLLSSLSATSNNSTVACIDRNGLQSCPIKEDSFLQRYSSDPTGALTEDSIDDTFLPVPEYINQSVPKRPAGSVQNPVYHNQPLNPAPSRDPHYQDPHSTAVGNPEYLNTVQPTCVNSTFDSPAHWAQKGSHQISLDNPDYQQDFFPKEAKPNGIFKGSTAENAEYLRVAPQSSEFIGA

EGFR L858R = target: T2, EGFR L858R (Homo sapiens, UniProt P00533, L858R); assay: Biochemical EGFR inhibition assay (Caliper mobility shift), EGFR L858R; settings: read-out: Enz EGFR_L858R IC50
T2 construct: purchased SignalChem E10-122BG
T2 sequence (P00533 25-1210 L858R): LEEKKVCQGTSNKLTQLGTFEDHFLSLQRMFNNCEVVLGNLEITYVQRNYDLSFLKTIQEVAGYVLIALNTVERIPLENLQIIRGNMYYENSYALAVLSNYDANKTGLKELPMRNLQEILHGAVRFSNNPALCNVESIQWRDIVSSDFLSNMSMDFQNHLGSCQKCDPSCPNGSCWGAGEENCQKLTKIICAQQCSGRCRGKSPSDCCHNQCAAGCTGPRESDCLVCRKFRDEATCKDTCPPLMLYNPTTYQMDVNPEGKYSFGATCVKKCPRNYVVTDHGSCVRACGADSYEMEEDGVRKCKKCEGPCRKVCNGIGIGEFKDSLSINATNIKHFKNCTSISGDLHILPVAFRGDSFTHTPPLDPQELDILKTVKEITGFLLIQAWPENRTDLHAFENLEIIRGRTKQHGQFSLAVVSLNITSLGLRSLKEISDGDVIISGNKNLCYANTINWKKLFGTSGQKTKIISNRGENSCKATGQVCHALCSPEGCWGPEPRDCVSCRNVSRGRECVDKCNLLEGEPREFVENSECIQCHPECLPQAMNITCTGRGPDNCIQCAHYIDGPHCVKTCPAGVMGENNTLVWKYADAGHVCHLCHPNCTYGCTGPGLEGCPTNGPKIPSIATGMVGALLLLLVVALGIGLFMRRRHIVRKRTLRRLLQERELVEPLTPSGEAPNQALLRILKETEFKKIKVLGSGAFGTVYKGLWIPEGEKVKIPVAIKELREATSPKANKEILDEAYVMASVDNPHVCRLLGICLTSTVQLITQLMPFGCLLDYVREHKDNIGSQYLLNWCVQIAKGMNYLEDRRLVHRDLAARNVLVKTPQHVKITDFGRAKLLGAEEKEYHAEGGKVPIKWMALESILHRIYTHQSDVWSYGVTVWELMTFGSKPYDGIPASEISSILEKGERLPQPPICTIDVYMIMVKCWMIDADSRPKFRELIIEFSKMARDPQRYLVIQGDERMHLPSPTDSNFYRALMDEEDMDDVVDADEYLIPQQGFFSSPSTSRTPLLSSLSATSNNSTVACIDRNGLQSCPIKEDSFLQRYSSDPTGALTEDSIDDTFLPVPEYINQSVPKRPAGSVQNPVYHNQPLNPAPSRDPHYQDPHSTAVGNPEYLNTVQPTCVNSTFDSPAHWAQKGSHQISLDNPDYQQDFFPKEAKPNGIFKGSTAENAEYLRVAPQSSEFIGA

[2] = 1.0 mM ATP or ATP Km, room temperature (25° C.)

T1 sequence (P00533 with tags, fused parts or gaps DEL746-750 limits assumed): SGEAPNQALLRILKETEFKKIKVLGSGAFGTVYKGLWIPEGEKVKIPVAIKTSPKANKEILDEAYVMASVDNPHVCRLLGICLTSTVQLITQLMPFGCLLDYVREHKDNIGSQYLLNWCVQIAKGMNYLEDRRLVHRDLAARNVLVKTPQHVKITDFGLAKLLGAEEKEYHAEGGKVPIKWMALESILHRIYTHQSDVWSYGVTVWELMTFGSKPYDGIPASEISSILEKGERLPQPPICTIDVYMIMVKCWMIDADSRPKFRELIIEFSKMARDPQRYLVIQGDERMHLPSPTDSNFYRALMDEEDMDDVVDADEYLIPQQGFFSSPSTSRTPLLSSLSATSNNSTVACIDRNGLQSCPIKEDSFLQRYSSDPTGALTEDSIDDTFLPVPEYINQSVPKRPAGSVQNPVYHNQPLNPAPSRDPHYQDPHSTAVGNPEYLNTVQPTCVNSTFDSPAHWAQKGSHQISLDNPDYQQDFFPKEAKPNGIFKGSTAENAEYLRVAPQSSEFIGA

Structure (SMILES)	IC50 (EGFR (d746-750); [2])	IC50 [1]	IC50 (EGFR L858R; [2])	IC50 (EGFR (d746-750))	IC50 (EGFR L858R)
CN(C)C1(COc2cc(-c3cnn(C)c3)cc3ncnc(Nc4ccc5ncccc5c4F)c23)COC1 [Example 21, 5-((3-(dimethylamino)oxetan-3-yl)methoxy)-N-(5-fluoroquinolin-6-yl)-7-(1-methyl-1H-pyrazol-4-yl)quinazolin-4-amine]	–	10.1 to 50 nM	–	< 10 nM	10.1 to 50 nM
C[C@H](CN(C)C)Oc1cc(-c2cnn(C)c2)cc2ncnc(Nc3cnc4ccccc4c3)c12 [Example 14, (R)-5-((1-(dimethylamino)propan-2-yl)oxy)-7-(1-methyl-1H-pyrazol-4-yl)-N-(quinolin-3-yl)quinazolin-4-amine]	–	≤ 10 nM	–	< 10 nM	< 10 nM
C[C@@H](CN(C)C)Oc1cc(-c2cnn(C)c2)cc2ncnc(Nc3ccc4ncccc4c3F)c12 (single isomer, unassigned) [Example 4, (S)-5-((1-(dimethylamino)propan-2-yl)oxy)-N-(5-fluoroquinolin-6-yl)-7-(1-methyl-1H-pyrazol-4-yl)quinazolin-4-amine or (R)-5-((1-(dimethylamino)propan-2-yl)oxy)-N-(5-fluoroquinolin-6-yl)-7-(1-methyl-1H-pyrazol-4-yl)quinazolin-4-amine]	10.1 to 50 nM	> 50.1 nM	10.1 to 50 nM	–	–
C[C@@H](Oc1cc(N2CCOCC2)cc2ncnc(Nc3ccc4ncccc4c3F)c12)C1COC1 [Example 61, (R)—N-(5-fluoroquinolin-6-yl)-7-morpholino-5-(1-(oxetan-3-yl)ethoxy)quinazolin-4-amine]	–	≤ 10 nM	–	< 10 nM	< 10 nM
CC(CN(C)C)Oc1cc(-c2cnn(C)c2)cc2ncnc(Nc3ccc4ncccc4c3)c12 (racemic) [Example 42, (R)-5-((1-(dimethylamino)propan-2-yl)oxy)-7-(1-methyl-1H-pyrazol-4-yl)-N-(quinolin-6-yl)quinazolin-4-amine and (S)-5-((1-(dimethylamino)propan-2-yl)oxy)-7-(1-methyl-1H-pyrazol-4-yl)-N-(quinolin-6-yl)quinazolin-4-amine]	–	≤ 10 nM	–	< 10 nM	< 10 nM
COc1cc(O[C@H](C)C2COC2)c2c(Nc3ccc4ncccc4c3F)ncnc2c1 [Example 56, (R)—N-(5-fluoroquinolin-6-yl)-7-methoxy-5-(1-(oxetan-3-yl)ethoxy)quinazolin-4-amine]	–	≤ 10 nM	–	< 10 nM	< 10 nM
C[C@@H](Oc1cc(-c2cnn(CC(C)(C)O)c2)cc2ncnc(Nc3ccc4ncccc4c3F)c12)C1COC1 [Example 48, (R)-1-(4-(4-(5-fluoroquinolin-6-ylamino)-5-(1-(oxetan-3-yl)ethoxy)quinazolin-7-yl)-1H-pyrazol-1-yl)-2-methylpropan-2-ol]	–	≤ 10 nM	–	< 10 nM	< 10 nM
C[C@H](Oc1cc(-c2cnn(C)c2)cc2ncnc(Nc3ccc4ncccc4c3F)c12)C1CCOCC1 [Example 20, (S)—N-(5-fluoroquinolin-6-yl)-7-(1-methyl-1H-pyrazol-4-yl)-5-(1-(tetrahydro-2H-pyran-4-yl)ethoxy)quinazolin-4-amine. or (R)—N-(5-fluoroquinolin-6-yl)-7-(1-methyl-1H-pyrazol-4-yl)-5-(1-(tetrahydro-2H-pyran-4-yl)ethoxy)quinazolin-4-amine]	< 10 nM	≤ 10 nM	< 10 nM	–	–
C[C@H](CN(C)C)Oc1cc(-c2cn[nH]c2)cc2ncnc(Nc3ccc4ncccc4c3F)c12 [Example 49, (R)-5-((1-(dimethylamino)propan-2-yl)oxy)-N-(5-fluoroquinolin-6-yl)-7-(1H-pyrazol-4-yl)quinazolin-4-amine]	–	≤ 10 nM	–	< 10 nM	< 10 nM
C[C@@H](Oc1cc(N2CC[C@H](C(C)(C)O)C2)cc2ncnc(Nc3ccc4ncccc4c3F)c12)C1COC1 [Example 62, 2—((S)-1-(4-((5-fluoroquinolin-6-yl)amino)-5-((R)-1-(oxetan-3-yl)ethoxy)quinazolin-7-yl)pyrrolidin-3-yl)propan-2-ol]	–	≤ 10 nM	–	< 10 nM	< 10 nM

The next lines start with the values.

IC50 (EGFR (d746-750); [2])	IC50 [1]	IC50 (EGFR L858R; [2])	IC50 (EGFR (d746-750))	IC50 (EGFR L858R)	Structure (SMILES)
< 10 nM	≤ 10 nM	< 10 nM	–	–	CO[C@H]1CCN(c2cc(O[C@H](C)CN(C)C)c3c(Nc4ccc5ncccc5c4F)ncnc3c2)C1 (single isomer, unassigned) [Example 87b, 5-(((R)-1-(dimethylamino)propan-2-yl)oxy)-N-(5-fluoroquinolin-6-yl)-7-((S)-3-methoxypyrrolidin-1-yl)quinazolin-4-amine or 5-(((R)-1-(dimethylamino)propan-2-yl)oxy)-N-(5-fluoroquinolin-6-yl)-7-((R)-3-methoxypyrrolidin-1-yl)quinazolin-4-amine]
–	≤ 10 nM	–	< 10 nM	< 10 nM	C[C@H](CN(C)C)Oc1cc(N2CC[C@H](C(C)(C)O)C2)cc2ncnc(Nc3c(F)cc4ncccc4c3F)c12 [Example 88, 2—((S)-1-(4-((5,7-difluoroquinolin-6-yl)amino)-5-(((R)-1-(dimethylamino)propan-2-yl)oxy)quinazolin-7-yl)pyrrolidin-3-yl)propan-2-ol]
–	10.1 to 50 nM	–	< 10 nM	10.1 to 50 nM	C[C@H](CN(C)C)Oc1cc(-c2cnn(C)c2)cc2ncnc(Nc3ccc4ncc(F)cc4c3F)c12 [Example 104, (R)—N-(3,5-difluoroquinolin-6-yl)-5-((1-(dimethylamino)propan-2-yl)oxy)-7-(1-methyl-1H-pyrazol-4-yl)quinazolin-4-amine]
< 10 nM	≤ 10 nM	< 10 nM	–	–	C[C@@H](Oc1cc(-c2cnn(C)c2)cc2ncnc(Nc3ccc4ncccc4c3F)c12)[C@@H]1COCCN1 (single isomer, unassigned) [Example 123]
–	10.1 to 50 nM	–	< 10 nM	10.1 to 50 nM	C[C@H](CN(C)C)Oc1cc(N2CCCS2(=O)=O)cc2ncnc(Nc3ccc4ncccc4c3F)c12 [Example 95, (R)-2-(5-((1-(dimethylamino)propan-2-yl)oxy)-4-((5-fluoroquinolin-6-yl)amino)quinazolin-7-yl)isothiazolidine 1,1-dioxide]
< 10 nM	≤ 10 nM	< 10 nM	–	–	C[C@H](Oc1cc(-c2cnn(C)c2)cc2ncnc(Nc3ccc4ncccc4c3F)c12)[C@@H](C)O (single isomer, unassigned) [Example 132, (2R,3S)-3-((4-((5-fluoroquinolin-6-yl)amino)-7-(1-methyl-1H-pyrazol-4-yl)quinazolin-5-yl)oxy)butan-2-ol or (2S,3R)-3-((4-((5-fluoroquinolin-6-yl)amino)-7-(1-methyl-1H-pyrazol-4-yl)quinazolin-5-yl)oxy)butan-2-ol]
–	≤ 10 nM	–	< 10 nM	< 10 nM	C[C@@H](Oc1cc(N2CC[C@H](N(C)C)C2)cc2ncnc(Nc3ccc4ncccc4c3F)c12)C1COC1 [Example 80, 7—((S)-3-(dimethylamino)pyrrolidin-1-yl)-N-(5-fluoroquinolin-6-yl)-5-((R)-1-(oxetan-3-yl)ethoxy)quinazolin-4-amine]
–	10.1 to 50 nM	–	< 10 nM	10.1 to 50 nM	C[C@H](CN(C)C)Oc1cc(-c2cnn(C)c2)cc2ncnc(Nc3ccc4c(ccc[n+]4[O-])c3F)c12 (single isomer, unassigned) [Example 129]
–	> 50.1 nM	–	> 50.1 nM	> 50.1 nM	C[C@H](Oc1cc(-c2cnn(C)c2)cc2ncnc(Nc3ccc4ncccc4c3F)c12)[C@@H]1COCCN1 [Example 157, N-(5-fluoroquinolin-6-yl)-7-(1-methyl-1H-pyrazol-4-yl)-5-((S)-1-((S)-morpholin-3-yl)ethoxy)quinazolin-4-amine]
–	≤ 10 nM	–	< 10 nM	< 10 nM	C[C@H](CN(C)C)Oc1cc(-c2cn(C)nc2OC(F)F)cc2ncnc(Nc3ccc4ncccc4c3F)c12 [Example 118, (R)-7-(3-(difluoromethoxy)-1-methyl-1H-pyrazol-4-yl)-5-((1-(dimethylamino)propan-2-yl)oxy)-N-(5-fluoroquinolin-6-yl)quinazolin-4-amine]
–	≤ 10 nM	–	< 10 nM	< 10 nM	[2H]c1ccc2c(F)c(Nc3ncnc4cc(-c5cnn(C)c5)cc(O[C@H](C)CN(C)C)c34)ccc2n1 [Example 155, (R)-5-((1-(dimethylamino)propan-2-yl)oxy)-N-(5-fluoroquinolin-6-yl-2-d)-7-(1-methyl-1H-pyrazol-4-yl)quinazolin-4-amine]
< 10 nM	10.1 to 50 nM	< 10 nM	–	–	CN1CC[C@H](Oc2cc(-c3cnn(C)c3)cc3ncnc(Nc4ccc5ncccc5c4F)c23)[C@@H](F)C1 (single isomer, unassigned) [Example 144, 5-(((3S,4S)-3-fluoro-1-methylpiperidin-4-yl)oxy)-N-(5-fluoroquinolin-6-yl)-7-(1-methyl-1H-pyrazol-4-yl)quinazolin-4-amine or 5-(((3R,4R)-3-fluoro-1-methylpiperidin-4-yl)oxy)-N-(5-fluoroquinolin-6-yl)-7-(1-methyl-1H-pyrazol-4-yl)quinazolin-4-amine]
–	≤ 10 nM	–	< 10 nM	< 10 nM	C[C@@H](Oc1cc(N2CC3(COC3)C2)cc2ncnc(Nc3ccc4ncccc4c3F)c12)C1COC1 [Example 64]
–	≤ 10 nM	–	< 10 nM	10.1 to 50 nM	C[C@H](CN(C)C)Oc1cc(N2CCn3cncc3C2)cc2ncnc(Nc3ccc4ncccc4c3F)c12 [Example 90, (R)-7-(5,6-dihydroimidazo[1,5-a]pyrazin-7(8H)-yl)-5-((1-(dimethylamino)propan-2-yl)oxy)-N-(5-fluoroquinolin-6-yl)quinazolin-4-amine]
